Data published in US8383658B2, “Isoxazole based neuronal nicotinic receptor ligands and methods of use” (Abbott Laboratories, priority 2008, dated 2013).

Target: T1, human α4β2 (Homo sapiens, UniProt P17787+P43681)
T1 construct: expressed in transfected cells
Test: Calcium flux assay (FLIPR), potentiation of submaximal agonist response in HEK 293 cells expressing α4β2
Format: cell-based
Settings: α4β2 PAM; fluorescence response to submaximal nicotine considered as 100%
Source text: One manner to characterize α4β2 PAM activity is by characterization in clonal cell lines (for example, human embryonic kidney 293 cells) expressing the human neuronal nicotinic acetylcholine receptor subtype α4β2, particularly by use of Fluorescent Image Plate Reader technology. Effects on calcium flux or membrane potential changes can be assessed. Such assays have been reported and further details for carrying out the assays can be obtained in International Publication No. WO 2006/114400. Another method to identify and characterize allosteric modulator activity is by expressing the α4β2 subunits in Xenopus oocytes, and by measuring electrophysiological effects on ligand-evoked current responses as previously described in Curtis, L., et al., Molecular Pharmacology, 61: 127-135, 2002.
To determine the effectiveness of representative compounds of this invention as ligands for α4β2 PAM activity, the compounds of the invention can be evaluated according to the Calcium Flux Assay described below.
Human embryonic kidney (HEK) 293 cells stably expressing human α4β2 or α3β4 combinations are grown to confluency in 162 cm^2 tissue culture flasks in DMEM media supplemented with 10% FBS and 25 μg/ml zeocin and 200 μg/ml hygromycin B. Cells expressing rat or ferret subunits may also be used. For assessing α3* or α7* selectivity, IMR-32 cells may also be used. IMR-32 neuroblastoma cells (ATCC) are grown to confluency in 162 cm^2 tissue culture flasks in minimum essential media supplemented with 10% FBS and 1 mM sodium pyruvate, 1% non-essential amino acids and 1% antibiotic-antimycotic. For the calcium flux assay, c cells are then dissociated using cell dissociation buffer and 100-150 μl per well of 3.5×10^5 cells/ml cell suspension (˜50,000-100,000 cells/well) was plated into 96-well black plates (poly-D-lysine precoated) with clear bottom and maintained for 24-48 hours in a tissue culture incubator at 37° C. under an atmosphere of 5% CO2: 95% air. Other clonal cell lines or primary cell cultures that express endogenous α4* nicotinic receptors may also be used in this assay. Calcium flux was measured using calcium-3 assay kit (Molecular Devices, Sunnyvale, Calif.) or fluo-4 (Invitrogen). A stock solution of the dye was prepared by dissolving each vial supplied by the vendor in Hank's balanced salt solution buffer (HBSS) or 150 mM NMDG, 20 mM CaCl2 containing 10 mM HEPES. The stock solution was diluted 1:20 using the same buffer before use. The growth media was removed from the cells. The cells were loaded with 100 μl of the dye per well and incubated at room temperature for up to one hour for HEK 293 clonal stable cell lines or 30 minutes-45 minutes at 37° C. for IMR-32 cells. Fluorescence measurements were read simultaneously from all the wells by a Fluorometic Imaging Plate Reader (FLIPR) at an excitation wavelength of 480 nm and an emission wavelength of 520 nm. Baseline fluorescence was measured for the first 6 seconds at which 3× concentrations of modulator/test compounds were added to the cell plate at 50 μl and incubated for five minutes. The fluorescence intensity was captured every second for the first 1 minute followed by every 5 seconds for an additional 4 minutes. This procedure was followed by 50 μl of 4× concentration of agonist and readings were taken for a period of 3-5 minutes as described above.
The ability of test compounds to positively modulate the response (i.e., increase the response) induced by a submaximal concentration of agonist (EC20-30%) such as nicotine is measured. Potentiation is measured based on peak fluorescence responses by screening compounds at fixed concentrations or in a concentration-response manner to derive EC50 values. The concentration dependence of changes in fluorescence responses is fitted by nonlinear regression analysis (GraphPad Prism, San Diego, Calif.) to obtain EC50 values. The degree of potentiation and EC50 values of the test compounds are typically calculated. […]

T1 sequence (P43681 29-627 limits assumed): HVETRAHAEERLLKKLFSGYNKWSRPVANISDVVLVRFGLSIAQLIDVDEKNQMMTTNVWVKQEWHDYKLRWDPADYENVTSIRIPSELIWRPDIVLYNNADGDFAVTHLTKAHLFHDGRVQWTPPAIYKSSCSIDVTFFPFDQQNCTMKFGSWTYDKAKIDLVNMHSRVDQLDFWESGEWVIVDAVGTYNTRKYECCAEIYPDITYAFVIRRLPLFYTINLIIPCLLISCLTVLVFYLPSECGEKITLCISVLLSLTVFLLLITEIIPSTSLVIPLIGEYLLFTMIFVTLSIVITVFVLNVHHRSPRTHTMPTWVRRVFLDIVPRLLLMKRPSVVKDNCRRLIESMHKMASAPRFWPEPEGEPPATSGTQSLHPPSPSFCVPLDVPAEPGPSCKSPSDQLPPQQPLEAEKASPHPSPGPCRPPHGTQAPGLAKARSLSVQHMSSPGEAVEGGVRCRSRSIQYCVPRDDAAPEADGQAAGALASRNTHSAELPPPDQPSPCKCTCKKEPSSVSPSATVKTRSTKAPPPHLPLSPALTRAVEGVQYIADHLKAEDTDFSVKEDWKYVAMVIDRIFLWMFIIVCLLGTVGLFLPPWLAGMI
T1 sequence (P17787 26-502): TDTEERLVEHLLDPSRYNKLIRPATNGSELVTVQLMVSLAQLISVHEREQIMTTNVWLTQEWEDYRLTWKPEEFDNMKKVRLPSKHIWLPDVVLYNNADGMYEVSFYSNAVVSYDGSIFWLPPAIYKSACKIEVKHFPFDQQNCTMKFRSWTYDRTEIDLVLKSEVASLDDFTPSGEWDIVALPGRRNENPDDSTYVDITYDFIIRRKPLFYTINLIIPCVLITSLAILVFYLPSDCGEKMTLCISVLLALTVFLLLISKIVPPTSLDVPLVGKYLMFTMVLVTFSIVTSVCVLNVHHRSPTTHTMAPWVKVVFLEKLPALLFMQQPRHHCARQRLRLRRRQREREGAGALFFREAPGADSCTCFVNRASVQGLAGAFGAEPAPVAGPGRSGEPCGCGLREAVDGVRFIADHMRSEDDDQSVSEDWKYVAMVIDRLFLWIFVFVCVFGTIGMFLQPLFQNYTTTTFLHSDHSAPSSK

N#Cc1cc(-c2cc(-c3cccnc3)no2)ccc1F [Example 68, 2-Fluoro-5-(3-(pyridin-3-yl)isoxazol-5-yl)benzonitrile]
Activity (allosteric effects—potentiation of fluorescence responses): a (“a” denotes as activity range from 200-400%)

CC(=O)c1cccc(-c2cc(-c3cccnc3)no2)c1 [Example 25, 1-(3-(3-(Pyridin-3-yl)isoxazol-5-yl)phenyl)ethanone]
Activity (allosteric effects—potentiation of fluorescence responses): b (“b” denotes an activity range from 150-200%)

N#Cc1cccc(-c2cc(-c3cncc(F)c3)no2)c1 [Example 29, 3-(3-(5-Fluoropyridin-3-yl)isoxazol-5-yl)benzonitrile]
Activity (allosteric effects—potentiation of fluorescence responses): b (“b” denotes an activity range from 150-200%)

Fc1ccc(-c2cc(-c3cccnc3)no2)cc1F [Example 16, 5-(3,4-Difluorophenyl)-3-(pyridin-3-yl)isoxazole]
Activity (allosteric effects—potentiation of fluorescence responses): b (“b” denotes an activity range from 150-200%)

Fc1cc(-c2cc(-c3cccnc3)no2)cc(F)c1F [Example 17, 5-(3,4,5-Trifluorophenyl)-3-(pyridin-3-yl)isoxazole]
Activity (allosteric effects—potentiation of fluorescence responses): a (“a” denotes as activity range from 200-400%)

c1cncc(-c2cc(-c3cccnc3)on2)c1 [Example 1, 3,5-Di(pyridin-3-yl)isoxazole]
Activity (allosteric effects—potentiation of fluorescence responses): a (“a” denotes as activity range from 200-400%)
